Measurements published in ChEMBL document CHEMBL1133739, “Fenchylamine sulfonamide inhibitors of amyloid beta peptide production by the gamma-secretase proteolytic pathway: potential small-molecule therapeutic agents for the treatment of Alzheimer's disease” (J Med Chem, 2000).

What was measured:
[1] = target: Amyloid-beta precursor protein (Homo sapiens) (UniProt P05067); assay: Observed stimulation of the production of soluble beta-amyloid precursor protein; type: functional
[2] = target: Amyloid-beta precursor protein (Homo sapiens) (UniProt P05067); assay: Inhibition of A-beta-42 production by inhibiting Gamma-secretase proteolytic pathway in HEK293 cell stably transfected with a double mutant form of human APP(K595N/M596L), at 2.5 uM concentration; type: cell-based

Amyloid-beta precursor protein (Homo sapiens), sequence (P05067 whole entry): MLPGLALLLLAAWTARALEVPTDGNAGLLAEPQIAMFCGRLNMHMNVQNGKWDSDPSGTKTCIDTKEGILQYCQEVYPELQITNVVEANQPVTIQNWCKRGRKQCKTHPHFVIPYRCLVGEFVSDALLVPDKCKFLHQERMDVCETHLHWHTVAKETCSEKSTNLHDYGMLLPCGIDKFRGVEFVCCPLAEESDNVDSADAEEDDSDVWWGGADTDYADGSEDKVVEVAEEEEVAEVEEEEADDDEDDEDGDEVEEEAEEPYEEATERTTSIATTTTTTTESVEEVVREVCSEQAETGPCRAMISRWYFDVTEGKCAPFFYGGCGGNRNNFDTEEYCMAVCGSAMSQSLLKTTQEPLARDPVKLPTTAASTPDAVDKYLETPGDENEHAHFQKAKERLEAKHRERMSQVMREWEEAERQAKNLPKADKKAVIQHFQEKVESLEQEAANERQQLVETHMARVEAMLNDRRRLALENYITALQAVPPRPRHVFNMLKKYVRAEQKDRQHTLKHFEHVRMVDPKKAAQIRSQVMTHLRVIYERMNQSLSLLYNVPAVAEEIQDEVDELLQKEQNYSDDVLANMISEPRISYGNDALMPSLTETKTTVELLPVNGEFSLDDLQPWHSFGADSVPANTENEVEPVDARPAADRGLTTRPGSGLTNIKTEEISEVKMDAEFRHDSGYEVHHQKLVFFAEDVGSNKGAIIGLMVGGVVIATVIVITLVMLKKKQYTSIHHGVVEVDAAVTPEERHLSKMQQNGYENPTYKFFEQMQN

Row | SMILES | Stimulation [1] [%] | inhibition [2] [%]
1 | CC12CC[C@@H](C1)C(C)(C)[C@@H]2NS(=O)(=O)c1cccs1 | 32 | 47
2 | CC12CC[C@@H](C1)C(C)(C)[C@@H]2NS(=O)(=O)c1ccc(F)cc1 (single isomer, unassigned; (+)) | 23 | 58
3 | CC1(C)[C@H]2CC[C@](C)(C2)[C@H]1NS(=O)(=O)c1ccc(F)cc1 | – | 19
4 | CC1(C)[C@@H]2CC[C@@](C)(C2)[C@H]1NS(=O)(=O)c1ccc(F)cc1 | – | 0
5 | CC12CC[C@@H](C1)C(C)(C)[C@H]2NS(=O)(=O)c1ccc(F)cc1 | – | 0
6 | CC12CC[C@@H](C1)C(C)(C)[C@@H]2NS(=O)(=O)c1ccc(Cl)cc1 | 0 | 26
7 | CC12CCC(C1)C(C)(C)C2NS(=O)(=O)c1ccc(F)cc1 (stereo not drawn) | 20 | 31
8 | CC12CC[C@@H](C1)C(C)(C)[C@@H]2NS(=O)(=O)c1ccc(Br)cc1 | 0 | 24
